According to the NIST ThermoML archive (doi:10.1007/s10765-006-0100-z):

Experiment: xn = mol fraction of the nth substance listed
Conditions: 101 kPa, Liquid; for mass density: Vibrating tube method

CC(C)CCl [1-chloro-2-methylpropane] + C1CCOCC1
Conditions	kinematic viscosity [m2/s]	mass density [kg/m3]
298.15 K, x2 = 0	4.93e-07	871.13
298.15 K, x2 = 0.048	–	871.69
298.15 K, x2 = 0.054	5.06e-07	–
298.15 K, x2 = 0.1069	5.19e-07	–
298.15 K, x2 = 0.1084	–	872.39
298.15 K, x2 = 0.2033	5.46e-07	–
298.15 K, x2 = 0.212	–	873.53
298.15 K, x2 = 0.29	–	874.38
298.15 K, x2 = 0.311	5.78e-07	–
298.15 K, x2 = 0.3951	–	875.37
298.15 K, x2 = 0.4126	6.11e-07	–
298.15 K, x2 = 0.504	6.45e-07	–
298.15 K, x2 = 0.5062	–	876.3
298.15 K, x2 = 0.595	6.82e-07	–
298.15 K, x2 = 0.6273	–	877.23
298.15 K, x2 = 0.6897	–	877.63
298.15 K, x2 = 0.6954	7.27e-07	–
298.15 K, x2 = 0.8028	7.83e-07	–
298.15 K, x2 = 0.8111	–	878.26
298.15 K, x2 = 0.9066	8.46e-07	–
298.15 K, x2 = 0.9088	–	878.68
298.15 K, x2 = 0.952	–	878.79
298.15 K, x2 = 0.9578	8.8e-07	–
313.15 K, x2 = 0	4.29e-07	853.51
313.15 K, x2 = 0.0432	–	854.17
313.15 K, x2 = 0.054	4.4e-07	–
313.15 K, x2 = 0.0934	–	854.93
313.15 K, x2 = 0.1069	4.51e-07	–
313.15 K, x2 = 0.1923	–	856.35
313.15 K, x2 = 0.2033	4.72e-07	–
313.15 K, x2 = 0.3025	–	857.83
313.15 K, x2 = 0.311	4.97e-07	–
313.15 K, x2 = 0.406	–	859.08
313.15 K, x2 = 0.4126	5.23e-07	–
313.15 K, x2 = 0.5018	–	860.14
313.15 K, x2 = 0.504	5.5e-07	–
313.15 K, x2 = 0.595	5.8e-07	–
313.15 K, x2 = 0.6079	–	861.19
313.15 K, x2 = 0.6954	6.16e-07	–
313.15 K, x2 = 0.7238	–	862.24
313.15 K, x2 = 0.7895	–	862.78
313.15 K, x2 = 0.8028	6.6e-07	–
313.15 K, x2 = 0.8874	–	863.42
313.15 K, x2 = 0.9066	7.07e-07	–
313.15 K, x2 = 0.9463	–	863.68
313.15 K, x2 = 0.9578	7.33e-07	–

CCCCCl [1-chlorobutane] + C1CCOCC1
Conditions	kinematic viscosity [m2/s]	mass density [kg/m3]
298.15 K, x2 = 0	4.78e-07	880.69
298.15 K, x2 = 0.0243	4.84e-07	–
298.15 K, x2 = 0.0521	–	880.67
298.15 K, x2 = 0.1006	–	880.66
298.15 K, x2 = 0.1039	5.02e-07	–
298.15 K, x2 = 0.1949	–	880.62
298.15 K, x2 = 0.2058	5.29e-07	–
298.15 K, x2 = 0.2549	–	880.59
298.15 K, x2 = 0.307	5.59e-07	–
298.15 K, x2 = 0.3774	–	880.48
298.15 K, x2 = 0.3984	5.89e-07	–
298.15 K, x2 = 0.5035	–	880.26
298.15 K, x2 = 0.5077	6.3e-07	–
298.15 K, x2 = 0.5948	–	880.06
298.15 K, x2 = 0.6038	6.69e-07	–
298.15 K, x2 = 0.661	–	879.87
298.15 K, x2 = 0.7064	7.18e-07	–
298.15 K, x2 = 0.7893	–	879.49
298.15 K, x2 = 0.7994	7.68e-07	–
298.15 K, x2 = 0.9058	8.37e-07	–
298.15 K, x2 = 0.9203	–	879.07
298.15 K, x2 = 0.9498	8.7e-07	–
298.15 K, x2 = 0.9666	–	878.91
313.15 K, x2 = 0	4.21e-07	863.82
313.15 K, x2 = 0.0243	4.28e-07	–
313.15 K, x2 = 0.0348	–	863.98
313.15 K, x2 = 0.0899	–	864.19
313.15 K, x2 = 0.1039	4.42e-07	–
313.15 K, x2 = 0.1717	–	864.39
313.15 K, x2 = 0.2058	4.63e-07	–
313.15 K, x2 = 0.2933	–	864.54
313.15 K, x2 = 0.307	4.86e-07	–
313.15 K, x2 = 0.3984	5.09e-07	–
313.15 K, x2 = 0.413	–	864.6
313.15 K, x2 = 0.4926	–	864.61
313.15 K, x2 = 0.5077	5.4e-07	–
313.15 K, x2 = 0.6026	–	864.59
313.15 K, x2 = 0.6038	5.72e-07	–
313.15 K, x2 = 0.7064	6.1e-07	–
313.15 K, x2 = 0.7085	–	864.52
313.15 K, x2 = 0.7994	6.49e-07	–
313.15 K, x2 = 0.8006	–	864.45
313.15 K, x2 = 0.899	–	864.22
313.15 K, x2 = 0.9058	7.01e-07	–
313.15 K, x2 = 0.9498	7.25e-07	–
313.15 K, x2 = 0.9724	–	863.88
